From patent publication US10517910B2 (priority 2015, dated 2019)
Counter-ions that a name gives are not always drawn.

Test system: HuH-7 cells infected with JX-594 virus
Format: cell-based

## COc1cccc2c1C(=O)c1c(O)c3c(c(O)c1C2=O)C[C@@](O)(C(=O)CO)C[C@@H]3O[C@H]1C[C@H](N)[C@H](O)[C@H](C)O1 [Adriamicyn, Doxorubicin hydrochloride]
  JX-594 viral replication in vitro: decrease
  viral output: decreased
